In the NIST ThermoML archive (doi:10.1021/je5004912):

Assay: excess molar enthalpy (molar enthalpy of mixing); xn = mol fraction of the nth substance listed
Details: 101 kPa, Liquid, Flow calorimetry

CCCCCCC [heptane] + CCCO
excess molar enthalpy [kcal/mol]
Details | 298.15 K | 313.15 K
x1 = 0.0503 | 0.0229 | 0.0292
x1 = 0.1001 | – | 0.0564
x1 = 0.1002 | 0.0435 | –
x1 = 0.15 | – | 0.081
x1 = 0.1501 | 0.0619 | –
x1 = 0.2 | – | 0.103
x1 = 0.2001 | 0.0786 | –
x1 = 0.2498 | – | 0.124
x1 = 0.2499 | 0.0935 | –
x1 = 0.3004 | 0.107 | 0.142
x1 = 0.3503 | – | 0.159
x1 = 0.3505 | 0.119 | –
x1 = 0.4003 | – | 0.174
x1 = 0.4005 | 0.13 | –
x1 = 0.4498 | – | 0.186
x1 = 0.4501 | 0.139 | –
x1 = 0.4996 | – | 0.196
x1 = 0.4997 | 0.147 | –
x1 = 0.5503 | – | 0.203
x1 = 0.5505 | 0.153 | –
x1 = 0.5995 | – | 0.208
x1 = 0.5996 | 0.157 | –
x1 = 0.6505 | – | 0.211
x1 = 0.6506 | 0.158 | –
x1 = 0.7004 | – | 0.209
x1 = 0.7005 | 0.157 | –
x1 = 0.7503 | – | 0.204
x1 = 0.7504 | 0.153 | –
x1 = 0.8 | – | 0.195
x1 = 0.8001 | 0.145 | –
x1 = 0.8492 | – | 0.18
x1 = 0.8493 | 0.134 | –
x1 = 0.8993 | 0.118 | 0.16
x1 = 0.9503 | 0.0913 | 0.123

C=CCCCC [hex-1-ene] + CCCO
excess molar enthalpy [kcal/mol]
Details | 298.15 K | 313.15 K
x1 = 0.0501 | 0.0146 | 0.022
x1 = 0.1002 | – | 0.0445
x1 = 0.1003 | 0.0301 | –
x1 = 0.1501 | 0.0459 | 0.0667
x1 = 0.2001 | – | 0.0884
x1 = 0.2002 | 0.0612 | –
x1 = 0.2499 | – | 0.109
x1 = 0.2501 | 0.0762 | –
x1 = 0.3003 | – | 0.13
x1 = 0.3004 | 0.0913 | –
x1 = 0.3499 | – | 0.148
x1 = 0.3501 | 0.106 | –
x1 = 0.4006 | – | 0.166
x1 = 0.4007 | 0.119 | –
x1 = 0.4499 | – | 0.181
x1 = 0.4501 | 0.132 | –
x1 = 0.4998 | – | 0.195
x1 = 0.5001 | 0.142 | –
x1 = 0.5502 | – | 0.206
x1 = 0.5504 | 0.152 | –
x1 = 0.5996 | – | 0.214
x1 = 0.5998 | 0.159 | –
x1 = 0.6503 | – | 0.218
x1 = 0.6505 | 0.163 | –
x1 = 0.6996 | – | 0.22
x1 = 0.6998 | 0.165 | –
x1 = 0.75 | 0.163 | 0.217
x1 = 0.7998 | – | 0.209
x1 = 0.7999 | 0.158 | –
x1 = 0.8505 | 0.147 | 0.195
x1 = 0.9004 | 0.131 | 0.172
x1 = 0.9508 | 0.102 | 0.131
